{"source": "patent US5690961A", "about": "“Acidic polysaccharides crosslinked with polycarboxylic acids and their uses” (Hercules Incorporated, priority 1994, dated 1997)", "origin": "cited, not measured here", "conditions": "in vivo"}
{"substance": "hyaluronic acid", "values": [{"measurement": "half-life of hyaluronic acid injected in a joint", "value": "about 13 hours"}]}
